Measured values from patent publication US20040266834A1, “Thiazolidinediones alone or in cabination with other therapeutic agents for cancer therapy” (priority 1999, published 2004).
In brackets after ≈: the same amount, converted by molar mass. Where a name gives a salt, the structure may show the parent alone. Starred links: 1 amine or outer side, 2 acyl side, 3 side chain; linkers in the order of their positions; H or OH if unused. Positions of bridges follow the written chain, without caps; N, C: chain ends. Non-standard residues stand in square brackets, D forms with d. Residues, ends and D or L forms follow the SMILES beside them. Chains are numbered I, II in the order given. Actinocin(9to1) = Cc1c2oc3c(C)ccc(C(=O)[*:1])c3nc-2c(C(=O)[*:2])c(N)c1=O; NMeV = CN[C@H](C(=O)O)C(C)C; Sar = CNCC(=O)O

Assays:
[1] = system: three renal cell carcinoma cell lines; experiment: DNA content, three renal cell carcinoma cell lines taken together; assay type: cell-based, human; conditions: 10 μM; UMCR 3, 6 and 7
Description: Human renal tumor cells (URMC 3, 6, 7) were cultured in 5% fetal bovine serum, penicillin/streptomycin, and alpha-MEM media. […] At the end of 3 days DNA content was determined as a measure of cell proliferation.
(§1) Concentration of cellular DNA was determined using Hoechst dye H 33258 and a Hoefer DyNA Quant fluorometer according to manufacturer's instructions. Results are expressed as μg DNA/well. All experiments were done in triplicate.

[2] = cited from earlier work
p21 mRNA = experiment: Ribonuclease protection assay, cell cycle regulator mRNA; assay type: cell-based, human; conditions: single treatment 1 μM, 24 hr, normalized to GAPDH
Description: To determine whether troglitazone effected any of the cell cycle regulator genes, ribonuclease protection assay (RPA) was performed measuring mRNAs encoding p130, Rb, p107, p53, p57, p27, p21, p19, p18, p16, p14/15 and the housekeeping gene products L32 and GAPDH. […] Cells were lysed and total RNA was isolated. […] Ribonuclease protection assay was performed using kit according to manufacturer instructions (PharMingen, San Diego, Calif.). Conditions that were optimized included using 20 μg of total RNA from Hs578T cells and a 1:200 dilution of RNAse A/T (200 units/ml RNase A and 10,000 units/ml RNase T). […] Results are reported as the ratio of […] signal. All experiments were done in triplicate from different RNA preparations.

CaOV3 cells = experiment: DNA content, ovarian tumor cells CaOV3; assay type: cell-based, human; conditions: 3 days; for inhibition at 10 µM: Homo sapiens, Caov-3, 72 h, read-out: inhibition of cell proliferation
Description: (§2) […]. At the end of 3 days DNA content was determined as a measure of cell proliferation.
as §1

222 cells = experiment: DNA content, ovarian tumor cells 222; assay type: cell-based; conditions: Homo sapiens, 72 h, 3 days, read-out: inhibition of growth
Description: as §2, §1

Saos-2 cells [3] = experiment: DNA content (Hoechst H 33258) as measure of cell proliferation, Saos-2; assay type: cell-based, human
Description: Cells exposed to a single treatment of troglitazone, 5-fluorouracil, and/or cis-platinum for 3 days. […] The phrase “cell proliferation” is used herein interchangeably with “cell growth.” Concentration of cellular DNA was determined using Hoechst dye H 33258 and a Hoefer DyNA Quant fluorometer according to manufacturer's instructions. Results are expressed as μg DNA/well. All experiments were done in triplicate.

PA-1 cells = experiment: DNA content, ovarian tumor cells PA-1; assay type: cell-based; conditions: Homo sapiens, 72 h, 3 days, read-out: inhibition of cell proliferation
Description: as §2, §1

Saos-2 cells [4] = experiment: [3H]thymidine incorporation, Saos-2; assay type: cell-based, human
Description: Saos-2 cells (10,000/well) were seeded into wells of 12-well plates and grown for 4 days until near confluent. […]. [Methyl-^3H]thymidine (1 μCi) and thymidine (3 μM) were then added to each well, and the incubation was continued for another 4 h. Cells were rinsed with ice-cold PBS twice and were treated with ice-cold 10% TCA. The cells were then rinsed twice with PBS and solubilized in 400 μl of solution composed of 0.03% SDS in 0.3 N NaOH. The extracts were neutralized with HCl, and radioactivity incorporated into the cells was quantified by liquid scintillation spectrometry.

Saos-2 cells [5] = experiment: Lactate dehydrogenase (LDH) activity in media, Saos-2; assay type: cell-based, human
Description: Saos-2 cells were purchased from ATCC (Rockville, Md.) and cultured in 10% fetal bovine serum, penicillin/streptomycin, and DMEM media. Cells exposed to a single treatment of troglitazone, 5-fluorouracil, and/or cis-platinum for 3 days. At the end of 3 days media was tested for lactate dehydrogenase (LDH) activity as a measure of cell toxicity and DNA content was determined as a measure of cell proliferation. The phrase “cell proliferation” is used herein interchangeably with “cell growth.”
Media from treated cells was assayed for LDH activity with a colorimetric dye-oxidation method which has been previously described (11). Briefly, the assay mix including lactate, NAD, INT dye and diaphorase in PBS was added to media from the cells and incubated 30 minutes. Red color development is indicative of INT […] to formazan product, giving an indication of LDH activity when measured at 490 nm.

PPARγ in UMCR 3 cells = experiment: PPRE/luciferase reporter, UMCR 3; assay type: cell-based, human; conditions: 10 μM, 24-hour treatment
Description: A tandem PPRE luciferase expression plasmid was constructed using three copies of a consensus PPRE 5′ to the luciferase gene. Cells were transfected using the calcium phosphate method of transfection. 10 μg of PPRE/luciferase reporter plasmid was transfected into URMC 3, 6, and 7 cells. A CMV-CAT reporter plasmid was cotransfected (0.5 μg) with PPRE/luciferase as an internal control for transfection efficiency. CAT activity was measured by ELISA as described by Boehringer-Mannheim. […] Cells lysates were prepared and luciferase activity was determined using an AutoLumat luminometer.

multiple myeloma = conditions: oral administration; cited from earlier work
[6] = humans; cited from earlier work
human ovarian 2774 cells = experiment: DNA content, ovarian 2774 cells, combinatorial therapy; assay type: cell-based; conditions: taxol 1 ng/ml, cis-platin 100 ng/ml, troglitazone 5 or 10 μM, alone or combined
Description: as §2, §1

HCT 15 cells = conditions: cited from earlier work
HCT 116 cells = conditions: cited from earlier work

CC1=C(/C=C/C(C)=C/C=C/C(C)=C/C(=O)O)C(C)(C)CCC1 [all trans retinoic acids]
growth inhibitory activity (FIGS. 13-15) [1]: little on no growth inhibitory activity

O=C(O)CCCc1ccc(N(CCCl)CCCl)cc1 [Chlorambucil, 4-[bis(2-chlorethyl)amino] benzenebutanoic acid]
oral absorption ([2]; in vivo): rapidly and completely absorbed

CC[C@]1(O)C[C@H]2CN(CCc3c([nH]c4ccccc34)[C@@](C(=O)OC)(c3cc4c(cc3OC)N(C=O)[C@H]3[C@@](O)(C(=O)OC)[C@H](OC(C)=O)[C@]5(CC)C=CCN6CC[C@]43[C@@H]65)C2)C1 [vincristine]
oral absorption ([2]; in vivo): Unpredictable absorption

Cc1c(C)c2c(c(C)c1O)CCC(C)(COc1ccc(CC3SC(=O)NC3=O)cc1)O2 (racemic) [troglitazone, ±5-[[4-[(3,4-dihydro-6-hydroxy-2,5,7,8-tetramethyl-2H-1-benzopyran-2-yl)methoxy]phenyl]methyl]-2,4-thiazolidinedione]
increase in p21 mRNA levels (p21 mRNA): 2.6 fold | inhibition of cell proliferation (CaOV3 cells; 10 μM): no inhibitory activity | inhibition at 10 µM (222 cells): 50% | IC50 (Saos-2 cells [3]; Homo sapiens, 72 h, Saos-2 cells, 3 days after a single treatment, read-out: IC50 (DNA content per well)): 1 to 10 µg/mL (≈ 2.26 to 22.6 µM) | ability to inhibit cell proliferation in combinatorial therapy (5-FU, doxorubicin) (Saos-2 cells [3]; compared with the other thiazolidinediones): superior to pioglitazone and BRL49653 | inhibition at 10 µM (PA-1 cells): 60 to 70% | decrease in 3H-thymidine incorporation (Saos-2 cells [4]; 10 μg/ml, 24 h exposure): ~45% | inhibition at 5 µg/mL (Saos-2 cells [4]; Homo sapiens, SAOS-2, read-out: inhibition of 3H-uridine uptake, 5 μg/ml, 18 hours): 16% | inhibition at 10 µg/mL (Saos-2 cells [4]; Homo sapiens, SAOS-2, read-out: inhibition of 3H-uridine uptake, 10 μg/ml, 18 hours): 43% | LDH levels in the media as compared to controls (Saos-2 cells [5]; any concentration used, 3 days of treatment): not altered | lethality to Saos-2 cells (LDH activity) (Saos-2 cells [5]; up to 30 μg/ml, 3 days): not lethal | stimulation of PPRE/luciferase transcription (PPARγ in UMCR 3 cells): 3 fold

COc1cccc2c1C(=O)c1c(O)c3c(c(O)c1C2=O)C[C@@](O)(C(C)=O)C[C@@H]3O[C@H]1C[C@H](N)[C@H](O)[C@H](C)O1 [Daunorubicin, 5,12-Naphthacenedione, (8S-cis)-8-acetyl-10-[(3-amino-2,3,6-trideoxy-a-L-lyxo-hexanopyranosyl)oxy]-7,8,9,10-tetrahydro-6,8,11-trihydroxy-10-methoxy-, hydrochloride]
oral absorption ([2]; in vivo): poor

CCc1ccc(CCOc2ccc(CC3SC(=O)NC3=O)cc2)nc1 (stereo not shown) [pioglitazone]
inhibition at 10 µM (CaOV3 cells): 60% | inhibition at 10 µM (222 cells): 36% | inhibition at 10 µM (PA-1 cells): 60 to 70%

N[C@@H](Cc1ccc(N(CCCl)CCCl)cc1)C(=O)O [Melphalan, 4-[bis(2-chloroethyl)amino]-L-phenylalanine]
patients showing a favorable response (multiple myeloma): one third to one half

Cc1c(C)c2c(c(C)c1OC(=O)CCC(=O)O)CC[C@@](C)(CCC[C@H](C)CCC[C@H](C)CCCC(C)C)O2 [Vitamin E succinate]
inhibition of cell proliferation, compounds compared (FIG. 7) (Saos-2 cells [3]; single treatment): somewhat less effective than troglitazone

O=C(O)CCC(=O)O [succinic acid]
effect upon cell proliferation (Saos-2 cells [3]; 100 μM): no effect

CC[C@]1(O)C[C@@H]2CN(CCc3c([nH]c4ccccc34)[C@@](C(=O)OC)(c3cc4c(cc3OC)N(C)[C@H]3[C@@](O)(C(=O)OC)[C@H](OC(C)=O)[C@]5(CC)C=CCN6CC[C@]43[C@@H]65)C2)C1 [vinblastine]
oral absorption ([2]; in vivo): Unpredictable absorption

CC1=C(/C=C/C(C)=C\C=C\C(C)=C\C(=O)O)C(C)(C)CCC1 [9-cis-retinoic acid]
growth inhibitory activity (FIGS. 13-15) [1]: little on no growth inhibitory activity

O=NN(CCCl)C(=O)NC1CCCCC1 [Lomustine, 1-(2-chloro-ethyl)-3-cyclohexyl-1 nitrosourea]
serum half-life of the metabolites ([2]; in vivo): 16 to 48 h | radioactivity excreted as degradation products within 24 hours ([2]; oral, 30 mg/m^2 to 100 mg/m^2, radioactive drug): about half

Cc1c2oc3c(C)ccc(C(=O)N[C@@H]4C(=O)N[C@H](C(C)C)C(=O)N5CCC[C@H]5C(=O)N(C)CC(=O)N(C)[C@@H](C(C)C)C(=O)O[C@@H]4C)c3nc-2c(C(=O)N[C@@H]2C(=O)N[C@H](C(C)C)C(=O)N3CCC[C@H]3C(=O)N(C)CC(=O)N(C)[C@@H](C(C)C)C(=O)O[C@@H]2C)c(N)c1=O [Actinomycin D] (I: T[dV]P[Sar][NMeV] / II: T[dV]P[Sar][NMeV]; ester I:1-I:C, II:1-II:C; linker I:N-II:N via Actinocin(9to1))
passage of the blood-brain barrier ([2]; in vivo): does not pass

O.O=P1(N(CCCl)CCCl)NCCCO1 (stereo not shown) [Cyclophosphamide, 2H-1,3,2-Oxazaphosphorin-2-amine, N,N-bis(2-chloroethyl)tetrahydro-, 2-oxide, monohydrate]
stability in the gastrointestinal tract ([2]; in vivo): stable

CO[C@@]12[C@H](COC(N)=O)C3=C(C(=O)C(C)=C(N)C3=O)N1C[C@@H]1N[C@@H]12 [mitomycin]
dose recovered/excreted in the urine [6]: Approximately 10%

N.N.[Cl][Pt][Cl] [cis-platin]
inhibition of cell proliferation (human ovarian 2774 cells): 55% | oral absorption ([2]; in vivo): not absorbed orally

CC(=O)O[C@H]1C(=O)[C@@]2(C)[C@H]([C@H](OC(=O)c3ccccc3)[C@]3(O)C[C@H](OC(=O)[C@H](O)[C@@H](NC(=O)c4ccccc4)c4ccccc4)C(C)=C1C3(C)C)[C@]1(OC(C)=O)CO[C@@H]1C[C@@H]2O [taxol]
inhibition at 0.001 µg/mL (human ovarian 2774 cells; Homo sapiens, read-out: inhibition of cell proliferation): 28%

CN(CCOc1ccc(CC2SC(=O)NC2=O)cc1)c1ccccn1 (stereo not shown) [rosiglitazone]
inhibition at 10 µM (CaOV3 cells): 60% | inhibition at 10 µM (222 cells): 4% | inhibition at 10 µM (PA-1 cells): 60 to 70%

vitamin E
IC50 (HCT 15 cells): 750 µM | IC50 (HCT 116 cells): 3 mM | cell killing (microscopic examination and LDH levels in the media) (Saos-2 cells [5]; 100 μM): cells are being killed

COc1cccc2c1C(=O)c1c(O)c3c(c(O)c1C2=O)C[C@@](O)(C(=O)CO)C[C@@H]3O[C@H]1C[C@H](N)[C@H](O)[C@H](C)O1 [Doxorubicin, 5,12-Naphthacenedione, (8s-cis)-10-[(3-amino-2,3,6-trideoxy-a-L-lyxo-hexopyranosyl)oxy]-7,8,9,10-tetrahydro-6,8,11-trihydroxy-8-(hydroxyacetyl)-1-methoxy-hydrochloride]
oral absorption ([2]; in vivo): absorbed poorly | secreted into the bile ([2]; in vivo): Forty to 50
